Experimental data published in patent US11040028B2, “Penicinotam derivative, preparation method and use thereof” (OCEAN UNIVERSITY OF CHINA, priority 2017, dated 2021).

Experiments:
Format in all cases: cell-based
[1] = system: BHK-21 cells; experiment: Anti-fibrosis activity test: inhibition of BHK-21 cell proliferation (CCK-8); conditions: Mesocricetus auratus, BHK-21, 48 h, CCK-8, 48 hours after administration
Protocol: (§1) BHK-21 cells in exponential growth phase were selected. After the fusion growth reached 85-95%, normal passage method was utilized to digest and collect the cells, followed by cell counting and adjusting the cell density to 2×10^4 cells/mL. The cells were seeded into 96-well plates, 100 μL/well, and were incubated under the condition of 5% CO2 at 37° C.
(§2) The supernatant was removed after the cells had adhered to the wall for 24 hours. The culture solution containing the prepared compounds at different concentrations were added to the wells, 100 μL/well, each concentration in triplicate. The cells were subcultured for 48 hours after administration. Commercially available pirfenidone was employed as the positive control.
(§3) 10 μL of CCK-8 solution ( 1/10 of the volume of the culture solution) was added to each well 48 hours after the administration, and incubated for 2 hours. The absorbance (A) of each well was determined by a microplate reader at 450 nm wavelength. The inhibition rate against cell proliferation for each compound was calculated based on A, wherein inhibition rate against cell proliferation (inhibition ratio, IR)=(1−value of experimental group (Ai)/value of blank control group (Ao))×100% and the IC50 value of each compound was calculated by the data processing software.

[2] = system: human lung fibroblasts HFL1; experiment: Anti-fibrosis activity test: inhibition of proliferation of human lung fibroblasts HFL1 (CCK-8); conditions: Homo sapiens, HFL1, 48 h, human lung fibroblasts HFL1, CCK-8, 48 hours
Protocol: as §1, §2, §3
(§4) Using the same protocol for the cell experiments, the inhibitory activity of the test compounds against the proliferation of human lung fibroblasts HFL1, human hepatic stellate cells LX-2, human fibrosarcoma cells HT-1080, human dermal fibroblasts CCC-ESF-1, human embryonic lung fibroblast IMR-90, cardiac fibroblast RAT-iCell-C002 was assayed.

[3] = system: human hepatic stellate cells LX-2; experiment: Anti-fibrosis activity test: inhibition of proliferation of human hepatic stellate cells LX-2 (CCK-8); conditions: Homo sapiens, 48 h, human hepatic stellate cells LX-2, CCK-8, 48 hours
Protocol: as §1, §2, §3, §4

[4] = system: human fibrosarcoma cells HT-1080; experiment: Anti-fibrosis activity test: inhibition of proliferation of human fibrosarcoma cells HT-1080 (CCK-8); conditions: Homo sapiens, HT-1080, 48 h, human fibrosarcoma cells HT-1080, CCK-8, 48 hours
Protocol: as §1, §2, §3, §4

[5] = system: human dermal fibroblasts CCC-ESF-1; experiment: Anti-fibrosis activity test: inhibition of proliferation of human dermal fibroblasts CCC-ESF-1 (CCK-8); conditions: Fibroblast; human dermal fibroblasts CCC-ESF-1, CCK-8, 48 hours
Protocol: as §1, §2, §3, §4

[6] = system: human embryonic lung fibroblast IMR-90; experiment: Anti-fibrosis activity test: inhibition of proliferation of human embryonic lung fibroblast IMR-90 (CCK-8); conditions: human embryonic lung fibroblast IMR-90, CCK-8, 48 hours
Protocol: as §1, §2, §3, §4

[7] = system: cardiac fibroblast RAT-iCell-C002; experiment: Anti-fibrosis activity test: inhibition of proliferation of cardiac fibroblast RAT-iCell-C002 (CCK-8); conditions: Cardiac fibroblast, 48 h, cardiac fibroblast RAT-iCell-C002, CCK-8, 48 hours
Protocol: as §1, §2, §3, §4

`O=C1c2c(n(Cc3ccc(Cl)cc3)c3cc(N4CCNCC4)c(F)cc3c2=O)-c2cccn21` [Compound 632a, 4-(4-Chlorobenzyl)-7-fluoro-6-(piperazin-1-yl)-9H-pyrrolizino[1,2-b]quinoline-9,10(4H)-dione] was tested, and the IC50 [1] was 0.05 to 5 mM, the IC50 [2] was 0.05 to 5 mM and the IC50 [3] was 0.05 to 5 mM. The IC50 [4] was 0.05 to 5 mM, the IC50 [5] was < 0.05 mM and the IC50 [6] was 0.05 to 5 mM. For the same compound, the IC50 [7] was 0.05 to 5 mM.
For `N#Cc1cc2c(=O)c3c(n(Cc4ccc(-c5ccccc5)cc4)c2cc1N1CCNCC1)-c1cccn1C3=O` [Compound 643a, 4-([1,1′-Biphenyl]-4-ylmethyl)-9,10-dioxo-6-(piperazin-1-yl)-4,10-dihydro-9H-pyrrolizino[1,2-b]quinoline-7-carbonitrile], the IC50 [1] was < 0.05 mM, the IC50 [2] was 0.05 to 5 mM and the IC50 [3] was 0.05 to 5 mM. For the same compound, the IC50 [4] was 5 to 20 mM, the IC50 [5] was 0.05 to 5 mM and the IC50 [6] was 0.05 to 5 mM. For the same compound, the IC50 [7] was 0.05 to 5 mM.
Work on `N#Cc1ccc(COc2c3c(nc4cc(N5CCNCC5)c(C#N)cc24)-c2cccn2C3=O)cc1` [Compound 641b, 9-((4-cyanobenzyl)oxy)-10-oxo-6-(piperazin-1-yl)-10H-pyrrolizino[1,2-b]quinoline-7-carbonitrile] yielded an IC50 [1] of 0.05 to 5 mM, an IC50 [2] of 0.05 to 5 mM and an IC50 [3] of 0.05 to 5 mM. For the same compound, the IC50 [4] was 0.05 to 5 mM, the IC50 [5] was 0.05 to 5 mM and the IC50 [6] was 0.05 to 5 mM. The IC50 [7] was 0.05 to 5 mM.
Compound `O=C1c2c(nc3cccc(Cl)c3c2OCc2ccccc2Cl)-c2cccn21` [Compound 645b, 8-chloro-9-((2-chlorobenzyl)oxy)-10H-pyrrolizino[1,2-b]quinolin-10-one] has an IC50 [1] of 0.05 to 5 mM, an IC50 [2] of 0.05 to 5 mM and an IC50 [3] of 0.05 to 5 mM. It also gave an IC50 [4] of 0.05 to 5 mM, an IC50 [5] of 0.05 to 5 mM and an IC50 [6] of 0.05 to 5 mM. The IC50 [7] was 0.05 to 5 mM.
Work on `O=C1c2c(nc3cc(N4CCNCC4)c(F)cc3c2OCc2ccc(-c3ccccc3)cc2)-c2cccn21` [Compound 637b, 9-([1,1′-biphenyl]-4-ylmethoxy)-7-fluoro-6-(piperazin-1-yl)-10H-pyrrolizino[1,2-b]quinolin-10-one] yielded an IC50 [1] of 0.05 to 5 mM, an IC50 [2] of 0.05 to 5 mM and an IC50 [3] of 0.05 to 5 mM. For the same compound, the IC50 [4] was 5 to 20 mM, the IC50 [5] was 0.05 to 5 mM and the IC50 [6] was 0.05 to 5 mM. For the same compound, the IC50 [7] was 0.05 to 5 mM.
Work on `N#Cc1cc2c(=O)c3c(n(Cc4ccc(C(F)(F)F)cc4)c2cc1N1CCNCC1)-c1cccn1C3=O` [Compound 642a, 9,10-Dioxo-6-(piperazin-1-yl)-4-(4-(trifluoromethyl)benzyl)-4,10-dihydro-9H-pyrrolizino[1,2-b]quinoline-7-carbonitrile] yielded an IC50 [1] of 0.05 to 5 mM, an IC50 [2] of 0.05 to 5 mM and an IC50 [3] of 0.05 to 5 mM. The IC50 [4] was 0.05 to 5 mM, the IC50 [5] was < 0.05 mM and the IC50 [6] was 0.05 to 5 mM. The IC50 [7] was 0.05 to 5 mM.
With `O=C1c2c(n(Cc3ccc(Br)cc3)c3cc(N4CCNCC4)c(F)cc3c2=O)-c2cccn21` [Compound 633a, 4-(4-Bromobenzyl)-7-fluoro-6-(piperazin-1-yl)-9H-pyrrolizino[1,2-b]quinoline-9,10(4H)-dione] the IC50 [1] was < 0.05 mM, the IC50 [2] was 0.05 to 5 mM and the IC50 [3] was 0.05 to 5 mM. It also gave an IC50 [4] of 0.05 to 5 mM, an IC50 [5] of 0.05 to 5 mM and an IC50 [6] of 0.05 to 5 mM. For the same compound, the IC50 [7] was 0.05 to 5 mM.
Work on `N#Cc1cc2c(OCc3ccc(-c4ccccc4)cc3)c3c(nc2cc1N1CCNCC1)-c1cccn1C3=O` [Compound 643b, 9-([1,1′-biphenyl]-4-ylmethoxy)-10-oxo-6-(piperazin-1-yl)-10H-pyrrolizino[1,2-b]quinoline-7-carbonitrile] yielded an IC50 [1] of 0.05 to 5 mM, an IC50 [2] of 0.05 to 5 mM and an IC50 [3] of 0.05 to 5 mM. The IC50 [4] was < 0.05 mM, the IC50 [5] was 0.05 to 5 mM and the IC50 [6] was 0.05 to 5 mM. For the same compound, the IC50 [7] was 0.05 to 5 mM.
`N#Cc1ccccc1-c1ccc(COc2c3c(nc4cc(N5CCNCC5)c(C#N)cc24)-c2cccn2C3=O)cc1` [Compound 644b, 9-((2′-cyano-[1,1′-biphenyl]-4-yl)methoxy)-10-oxo-6-(piperazin-1-yl)-10H-pyrrolizino[1,2-b]quinoline-7-carbonitrile] showed an IC50 [1] of 0.05 to 5 mM, an IC50 [2] of 0.05 to 5 mM and an IC50 [3] of 0.05 to 5 mM. For the same compound, the IC50 [4] was 0.05 to 5 mM, the IC50 [5] was 0.05 to 5 mM and the IC50 [6] was 0.05 to 5 mM. The IC50 [7] was 0.05 to 5 mM.
`N#Cc1ccc(Cn2c3c(c(=O)c4cc(F)c(N5CCNCC5)cc42)C(=O)n2cccc2-3)cc1` [Compound 635a, 4-((7-Fluoro-9,10-dioxo-6-(piperazin-1-yl)-9H-pyrrolizino[1,2-b]quinolin-4(10H)-yl)methyl)benzonitrile] was tested, and the IC50 [1] was 0.05 to 5 mM, the IC50 [2] was 0.05 to 5 mM and the IC50 [3] was 0.05 to 5 mM. The IC50 [4] was 0.05 to 5 mM, the IC50 [5] was 0.05 to 5 mM and the IC50 [6] was 0.05 to 5 mM. It also gave an IC50 [7] of 0.05 to 5 mM.
`O=C1c2c(n(Cc3ccc(Cl)cc3)c3cc(N4CCNCC4)cc(F)c3c2=O)-c2cccn21` [Compound 647a, 4-(4-Chlorobenzyl)-8-fluoro-6-(piperazin-1-yl)-9H-pyrrolizino[1,2-b]quinoline-9,10(4H)-dione] showed an IC50 [1] of 0.05 to 5 mM, an IC50 [2] of 0.05 to 5 mM and an IC50 [3] of 0.05 to 5 mM. The IC50 [4] was 0.05 to 5 mM, the IC50 [5] was 0.05 to 5 mM and the IC50 [6] was 0.05 to 5 mM. The IC50 [7] was 0.05 to 5 mM.
In the case of `N#Cc1ccccc1-c1ccc(Cn2c3c(c(=O)c4cc(F)c(N5CCNCC5)cc42)C(=O)n2cccc2-3)cc1` [Compound 638a, 4′-((7-Fluoro-9,10-dioxo-6-(piperazin-1-yl)-9H-pyrrolizino[1,2-b]quinolin-4(10H)-yl)methyl)-[1,1′-biphenyl]-2-carbonitrile], the IC50 [1] is reported as 0.05 to 5 mM, the IC50 [2] is reported as 0.05 to 5 mM and the IC50 [3] is reported as 0.05 to 5 mM. The IC50 [4] was 0.05 to 5 mM, the IC50 [5] was 0.05 to 5 mM and the IC50 [6] was 0.05 to 5 mM. The IC50 [7] was 0.05 to 5 mM.
In the case of `O=C1c2c(n(Cc3ccccc3Cl)c3cccc(Cl)c3c2=O)-c2cccn21` [Compound 645a, 8-Chloro-4-(2-chlorobenzyl)-9H-pyrrolizino[1,2-b]quinoline-9,10(4H)-dione], the IC50 [1] is reported as 0.05 to 5 mM, the IC50 [2] is reported as 0.05 to 5 mM and the IC50 [3] is reported as 0.05 to 5 mM. The IC50 [4] was 0.05 to 5 mM, the IC50 [5] was < 0.05 mM and the IC50 [6] was 0.05 to 5 mM. For the same compound, the IC50 [7] was 0.05 to 5 mM.
For `N#Cc1cc2c(=O)c3c(n(Cc4ccc(Cl)cc4)c2cc1N1CCNCC1)-c1cccn1C3=O` [Compound 640a, 4-(4-Chlorobenzyl)-9,10-dioxo-6-(piperazin-1-yl)-4,10-dihydro-9H-pyrrolizino[1,2-b]quinoline-7-carbonitrile], the IC50 [1] was 0.05 to 5 mM, the IC50 [2] was 0.05 to 5 mM and the IC50 [3] was 0.05 to 5 mM. For the same compound, the IC50 [4] was 0.05 to 5 mM, the IC50 [5] was 0.05 to 5 mM and the IC50 [6] was 0.05 to 5 mM. It also gave an IC50 [7] of 0.05 to 5 mM.
With `O=C1c2c(nc3cc(N4CCNCC4)c(F)cc3c2OCc2ccc(F)cc2)-c2cccn21` [Compound 634b, 7-fluoro-9-((4-fluorobenzyl)oxy)-6-(piperazin-1-yl)-10H-pyrrolizino[1,2-b]quinolin-10-one] the IC50 [1] was 0.05 to 5 mM, the IC50 [2] was 0.05 to 5 mM and the IC50 [3] was 0.05 to 5 mM. For the same compound, the IC50 [4] was 0.05 to 5 mM, the IC50 [5] was 0.05 to 5 mM and the IC50 [6] was 0.05 to 5 mM. For the same compound, the IC50 [7] was 0.05 to 5 mM.
With `N#Cc1ccc(COc2c3c(nc4cc(N5CCNCC5)c(F)cc24)-c2cccn2C3=O)cc1` [Compound 635b, 4-(((7-fluoro-10-oxo-6-(piperazin-1-yl)-10H-pyrrolizino[1,2-b]quinolin-9-yl)oxy)methyl)benzonitrile] the IC50 [1] was 0.05 to 5 mM, the IC50 [2] was 0.05 to 5 mM and the IC50 [3] was 0.05 to 5 mM. For the same compound, the IC50 [4] was 0.05 to 5 mM, the IC50 [5] was 0.05 to 5 mM and the IC50 [6] was 0.05 to 5 mM. For the same compound, the IC50 [7] was 0.05 to 5 mM.
